Experimental data published in US8287887B2, “Antigen-and-drug vehicle comprising synthetic peptide, and mucosal vaccine using the same” (priority 2008, dated 2012).

Tests used:
[1] = test system: influenza virus A strain New Calcdonia (H1N1); set-up: species or system Clawn minipigs; conditions: minipig, in vivo
[2] = test system: influenza A virus strain Aichi/68/2/H3N2; assay: Nasal vaccination of mice; anti-influenza IgA and IgG in nasal cavity lavage fluids and blood serum by ELISA; format: in vivo, BALB/c mice; conditions: compared with HA vaccine alone or with other AD vehicles

Sequence | Effectiveness of AD vehicle in inducing antibody titers, in words [1] | Antibody-production-enhancing effect (IgA and/or IgG), in words [2]
KKKKKKLLLLLLLLLLLLLLLL [K6L16, six K residues on the N-terminal side and 16 L residues on the C-terminal side] | effective | –
PVHLKRLLLLLLLLLLL [SP-CL11] | effective | –
PVHLRKLLLLLLLLLLLLLLLL (PVHLKRLLLLLLLLLLLLLLLL) [RK-SP-CL, comparison peptide; KR of the 5th-6th positions of SP-CL11 reversed to RK, more L residues] | – | not much involved in the antibody production
